{"source": "patent US20100168250A1", "about": "“USE OF CYCLOHEXANEHEXOL DERIVATIVES IN THE TREATMENT OF OCULAR DISEASE” (priority 2007, published 2010)", "tested_on": "ARPE-19 cells", "experiment": "Effect of AZD103 on Aβ1-42-induced VEGF secretion in ARPE-19 cells (VEGF ELISA)", "format": "cell-based, human", "source_text": "The potential of AZD-103 to neutralize the effects of Aβ on VEGF expression by RPE cells was investigated using the following materials and methods.\nMaterials: Human VEGF Duoset, 2nd Generation was obtained from R & D Systems [# DY293B]. 3,3′,5,5′-Tetramethylbenzidine Liquid Substrate (TMB) was obtained from Sigma [# S8865]. The stop solution for TMB was also obtained from Sigma [# S5814]. Tween-20 was obtained from Fisher [# BP 337-500]; Probumin was obtained from Millipore [#82-045-1]; and, 10× Phosphate Buffered Saline (PBS) was obtained from Roche [#11666789001]. […] The Media was then assessed for levels of VEGF by ELISA (R&D Systems, Minneapolis, Minn.) VEGF ELISA: Conditioned media collected from cell cultures grown in the presence or absence of Aβ1-42 and AZD103 were tested for vascular endothelial growth factor (VEGF) expression using a human VEGF duoset ELISA development kit as described by the manufacturer (R &D systems). […] The reaction was stopped and the colour development was read spectrophotometrically at a wavelength of 450 nm.", "data": [{"smiles": "O[C@H]1[C@H](O)[C@@H](O)[C@H](O)[C@@H](O)[C@@H]1O", "note": "[AZD103]", "values": [{"measurement": "amount of secreted VEGF", "setting": "ARPE-19 cells (1.5×10^4), Aβ1-42 oligomers pre-incubated 2 hours at 37° C. with AZD103 at weight ratios 1:0.5, 1:1, 1:2, 24 Hr treatment, serum-free medium, ELISA", "result": "effective towards reducing the amount of secreted VEGF"}, {"measurement": "VEGF expression by RPE cells in presence of Aβ, compared to basal levels (absence of Aβ)", "setting": "ARPE-19 cells, expressed as comparison to Normal ARPE-19 cells that received no treatment", "result": "returned to basal levels"}]}]}
